Laboratory results published in PMC10436262, “Structure-Based Design of Inhibitors of the m^6A-RNA Writer Enzyme METTL3” (ACS Bio & Med Chem Au, 2023).
Where “and” joins values, the source holds several entries; their conditions need not be identical. Equal values may be shown once. Read-outs that look alike come from different tables or passages of the source.

Target: T1, METTL3/METTL14 (Homo sapiens, UniProt Q86U44)
T1 construct: made in house; host or cells: Sf9 insect cells (baculovirus)
Experiment: METTL3 enzymatic inhibition assay by homogeneous time-resolved fluorescence (HTRF)
Type: biochemical
Conditions: for IC50: HTRF assay; for S/R Ratio: ratio of IC50 of S isomer to R isomer; for fold improvement in affinity (IC50) vs compound 4: relative to reference compound 4
Description: Compound potencies were evaluated by using a previously reported METTL3 inhibition assay. […] Tested compounds that inhibit METTL3 decrease the m^6A level and thus reduce the HTRF signal. The biochemical assay was performed, as described previously.[19] The IC50 values derived from fitting a dose–response curve to the data using nonlinear regression. The IC50 values are given as an average of at least two independent measurements for each compound in the text.

[1] = racemic mixture, read-out: IC50
[2] = R isomer, read-out: IC50 (µM) R
[3] = S isomer, read-out: IC50 (µM) S

T1 sequence (Q86U44 whole entry): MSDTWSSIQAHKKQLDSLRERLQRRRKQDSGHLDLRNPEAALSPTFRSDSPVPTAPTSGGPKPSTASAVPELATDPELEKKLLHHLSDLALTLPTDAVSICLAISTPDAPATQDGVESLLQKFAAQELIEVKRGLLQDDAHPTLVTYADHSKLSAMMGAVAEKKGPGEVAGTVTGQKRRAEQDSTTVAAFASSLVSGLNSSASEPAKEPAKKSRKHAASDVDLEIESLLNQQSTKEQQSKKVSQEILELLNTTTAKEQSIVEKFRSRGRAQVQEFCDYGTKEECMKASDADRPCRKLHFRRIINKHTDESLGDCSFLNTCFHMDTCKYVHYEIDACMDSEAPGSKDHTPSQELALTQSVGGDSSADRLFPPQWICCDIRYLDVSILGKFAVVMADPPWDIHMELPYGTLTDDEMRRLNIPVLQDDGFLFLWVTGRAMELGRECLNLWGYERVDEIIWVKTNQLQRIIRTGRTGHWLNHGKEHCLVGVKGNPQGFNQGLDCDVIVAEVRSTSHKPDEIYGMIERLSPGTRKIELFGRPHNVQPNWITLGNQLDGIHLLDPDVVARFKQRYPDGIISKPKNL
T1 sequence (Q9HCE5 whole entry partner): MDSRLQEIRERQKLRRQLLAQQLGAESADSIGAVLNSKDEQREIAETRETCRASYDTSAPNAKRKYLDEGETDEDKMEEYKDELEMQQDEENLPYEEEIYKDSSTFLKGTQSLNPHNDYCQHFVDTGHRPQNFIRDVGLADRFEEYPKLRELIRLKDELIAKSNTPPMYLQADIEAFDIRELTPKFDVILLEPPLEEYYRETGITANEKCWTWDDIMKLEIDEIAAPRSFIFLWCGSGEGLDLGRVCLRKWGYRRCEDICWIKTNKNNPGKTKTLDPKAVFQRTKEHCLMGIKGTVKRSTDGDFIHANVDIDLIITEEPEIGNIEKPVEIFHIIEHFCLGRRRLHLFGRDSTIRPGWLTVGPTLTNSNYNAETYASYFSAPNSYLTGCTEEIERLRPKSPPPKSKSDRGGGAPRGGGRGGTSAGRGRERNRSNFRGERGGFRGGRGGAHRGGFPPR

Compound | IC50 [1] [µM] | also measured
CNc1cc(N2CCCC(O)(CNC(=O)c3ccc(CN4CCCCC4)cc3)C2)ncn1 (stereo not drawn) [compound 1] | 430 | –
CC1(C)CCN(Cc2ccc(C(=O)NCC3(O)CCCN(c4cc(NCc5ccsc5)ncn4)C3)cc2)CC1 (stereo not drawn) [compound 12] | 1.8 | –
CC1(C)CCN(Cc2ccc(C(=O)NCC3(O)CCCN(c4cc(NCc5ccccc5)ncn4)C3)cc2)CC1 (stereo not drawn) [compound 16] | 1.7 | IC50 [2]: 1.2 µM; IC50 [3]: 7.1 µM; fold difference in activity between R and S configurations (R more active than S): ~6 fold; S/R Ratio: 5.9; fold improvement in affinity (IC50) vs compound 4: 4.8 fold
CC1(C)CCN(Cc2ccc(C(=O)NCC3(O)CCCN(c4cc(NCc5cccc6nc[nH]c56)ncn4)C3)cc2)CC1 (stereo not drawn) [compound 9] | 2.1 | –
CNc1cc(N2CCCC(O)(CNC(=O)c3ccc(CN4CCNCC4)cc3)C2)ncn1 (stereo not drawn) [compound 5] | 179 | –
O=C(NCC1(O)CCCN(c2cc(NCc3ccccc3)ncn2)C1)c1ccc(CN2CCC3(CC2)CC3)cc1 (stereo not drawn) [compound 17] | 3.3 | –
CCCCN(Cc1ccc(C(=O)NCC2(O)CCCN(c3cc(NCc4ccccc4)ncn3)C2)cc1)C1CCCCC1 (stereo not drawn) [compound 26] | > 10 | –
CCC1CCN(Cc2ccc(C(=O)NCC3(O)CCCN(c4cc(NC)ncn4)C3)cc2)CC1 (stereo not drawn) [compound 6] | 230 | –
CC1(C)CN(Cc2ccc(C(=O)NCC3(O)CCCN(c4cc(NCc5ccccc5)ncn4)C3)cc2)C1 (stereo not drawn) [compound 27] | 9.3 | –
CCC1(C)CCN(Cc2ccc(C(=O)NCC3(O)CCCN(c4cc(NCc5ccccc5)ncn4)C3)cc2)CC1 (stereo not drawn) [compound 18] | 4.7 | –
CC1(C)CCN(Cc2ccc(C(=O)NCC3(O)CCCN(c4cc(NCc5cccc6sccc56)ncn4)C3)cc2)CC1 (stereo not drawn) [compound 10] | 0.82 | fold improvement in affinity (IC50) vs compound 4: 10 fold
CC(Nc1cc(N2CCCC(O)(CNC(=O)c3ccc(CN4CCC(C)(C)CC4)cc3)C2)ncn1)c1ccccc1 (stereo not drawn) [compound 13] | 12 | –

Now from value to compound, other results behind:

IC50 [1] [µM] | Compound | also measured
0.3 | CC1(C)CCN(Cc2ccc(C(=O)NCC3(O)CCCN(c4cc(NCc5cccc(S(N)(=O)=O)c5)ncn4)C3)c(O)c2)CC1 (stereo not drawn) [compound 52] | –
> 10 | CCCN(Cc1ccc(C(=O)NCC2(O)CCCN(c3cc(NCc4ccccc4)ncn3)C2)cc1)C1CCCCC1 (stereo not drawn) [compound 38] | –
17.7 | CC(C)CCNCc1ccc(C(=O)NCC2(O)CCCN(c3cc(NCc4ccccc4)ncn3)C2)cc1 (stereo not drawn) [compound 34] | –
0.36 | CC1(C)CCN(Cc2ccc3c(NCC4(O)CCCN(c5cc(NCc6ccccc6)ncn5)C4)cccc3c2)CC1 (stereo not drawn) [compound 46] | IC50 [2]: 0.2 µM; IC50 [3]: 12 µM; S/R Ratio: 60.0; fold improvement in affinity (IC50) vs compound 16 (relative to reference compound 16): 5 fold and 4.7 fold
5.1 | CC1(C)CCN(Cc2ccc(N3CC4(CCN(c5cc(NCc6ccccc6)ncn5)CC4)OCC3=O)cn2)CC1 [compound 48] | –
5.2 | O=C(NCC1(O)CCCN(c2cc(NCc3ccccc3)ncn2)C1)c1ccc(CNCC2CCC2)cc1 (stereo not drawn) [compound 36] | –
14 | O=C(NCC1(O)CCCN(c2cc(NCc3ccccc3)ncn2)C1)c1ccc(CN2CCCCC2)cc1 (stereo not drawn) [compound 40] | –
7.4 | CCC(CC)CNCc1ccc(C(=O)NCC2(O)CCCN(c3cc(NCc4ccccc4)ncn3)C2)cc1 (stereo not drawn) [compound 28] | –
0.19 | CNC(=O)c1cccc(CNc2cc(N3CCCC(O)(CNC(=O)c4ccc(CN5CCC(C)(C)CC5)cc4O)C3)ncn2)c1 (stereo not drawn) [compound 51] | –
5 | CC(C)(C)CNCc1ccc(C(=O)NCC2(O)CCCN(c3cc(NCc4ccccc4)ncn3)C2)cc1 (stereo not drawn) [compound 35] | –
5.1 | CC(C)CNCc1ccc(C(=O)NCC2(O)CCCN(c3cc(NCc4ccccc4)ncn3)C2)cc1 (stereo not drawn) [compound 33] | –
7.7 | O=C(NCC1(O)CCCN(c2cc(NCc3ccccc3)ncn2)C1)c1ccc(CN2CC3(CCCC3)C2)cc1 (stereo not drawn) [compound 32] | –
0.27 | CC(C)C1N(Cc2ccc(C(=O)NCC3(O)CCCN(c4cc(NCc5ccccc5)ncn4)C3)c(O)c2)CC12CCC2 (stereo not drawn) [compound 50] | –
> 10 | CCCCN(Cc1ccc(C(=O)NCC2(O)CCCN(c3cc(NCc4ccccc4)ncn3)C2)cc1)C1CCCC1 (stereo not drawn) [compound 39] | –
